Reference: ChEMBL document CHEMBL1201862, “PubChem BioAssay data set” (2004)
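These data come from cells grown in 96-well plates and exposed to compound for 48 hours at five concentrations. At the GI50, growth is halved.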 Active and inactive are the calls of the source. Rule as the data show it: active = GI50 up to about 1.1 µM and inactive = higher. Residues, ends and D or L forms follow the SMILES beside them. *: point of attachment. Boc = CC(C)(C)OC(=O)*

How the values were obtained:
Experiment in all cases: NCI tumour cell line growth inhibition, 48 h
K562 = tested on: K562
HOP-62 = tested on: HOP-62
OVCAR-8 = tested on: OVCAR-8
M14 = tested on: M14
MDA-MB-231 = tested on: MDA-MB-231
786-0 = tested on: 786-0
SN12C = tested on: SN12C
SW-620 = tested on: SW-620
UO-31 = tested on: UO-31
MOLT-4 = tested on: MOLT-4
SK-MEL-28 = tested on: SK-MEL-28
CCRF-CEM = tested on: CCRF-CEM
RPMI-8226 = tested on: RPMI-8226
NCI-H23 = tested on: NCI-H23
HT-29 = tested on: HT-29
NCI-H522 = tested on: NCI-H522
RXF 393 = tested on: RXF 393
COLO 205 = tested on: COLO 205
SF-295 = tested on: SF-295
EKVX = tested on: EKVX

Measured: GI50

COC(=O)C(Cc1c[nH]c2ccccc12)NC(=O)C(Cc1c[nH]c2ccccc12)NC(=O)C(Cc1c[nH]c2ccccc12)NC(=O)C(Cc1c[nH]c2ccccc12)NC(=O)C(Cc1c[nH]c2ccccc12)NC(=O)C(Cc1c[nH]c2ccccc12)NC(=O)OC(C)(C)C (stereo not given) (Boc-WWWWWW-OMe; configuration not given here)
inactive: K562 > 100 µM | HOP-62 > 100 µM | OVCAR-8 92.9 µM | M14 > 10 µM | MDA-MB-231 > 100 µM | 786-0 > 100 µM | SN12C 49.9 µM | SW-620 > 100 µM | UO-31 33 µM | MOLT-4 63.4 µM | SK-MEL-28 14.4 µM | CCRF-CEM > 100 µM | RPMI-8226 57 µM | NCI-H23 28.5 µM | HT-29 > 100 µM | NCI-H522 28.1 µM

COC(=O)C1=C(C(=O)OC)SC(=C2c3ccsc3-c3sccc32)S1
inactive: K562 36.2 µM | HOP-62 19.7 µM | RXF 393 18.3 µM | OVCAR-8 29.1 µM | COLO 205 47.5 µM | M14 36.6 µM | MDA-MB-231 > 100 µM | 786-0 21.4 µM | SN12C 65.8 µM | SW-620 69 µM | UO-31 99.1 µM | MOLT-4 39.4 µM | SF-295 17.6 µM | SK-MEL-28 24.3 µM | CCRF-CEM 38.1 µM | EKVX 27.3 µM | RPMI-8226 76.9 µM | NCI-H23 16.1 µM | HT-29 22.8 µM

COc1cc2cc3c4cc(OC)c(OC)cc4cc[n+]3c(C)c2cc1OC [CORALYNE]
inactive: K562 91.4 µM | OVCAR-8 > 100 µM | COLO 205 47.3 µM | MDA-MB-231 > 100 µM | 786-0 15.6 µM | SN12C 5.74 µM | SW-620 58.7 µM | UO-31 > 100 µM | MOLT-4 > 100 µM | SF-295 28.6 µM | SK-MEL-28 > 100 µM | CCRF-CEM > 100 µM | EKVX 60.7 µM | RPMI-8226 > 100 µM | NCI-H23 > 100 µM | HT-29 77.4 µM | NCI-H522 40 µM

NC(C(F)(F)F)(C(F)(F)F)P(=O)(c1ccccc1)c1ccccc1
inactive: K562 > 100 µM | HOP-62 > 100 µM | RXF 393 > 100 µM | OVCAR-8 > 100 µM | COLO 205 > 100 µM | M14 > 100 µM | MDA-MB-231 > 100 µM | 786-0 > 100 µM | SN12C > 100 µM | SW-620 > 100 µM | UO-31 > 100 µM | MOLT-4 > 100 µM | SF-295 > 100 µM | SK-MEL-28 > 100 µM | CCRF-CEM > 100 µM | EKVX > 100 µM | RPMI-8226 > 100 µM | NCI-H23 > 100 µM | HT-29 > 100 µM

CN(C)Cc1cc(/C=C/C(=O)c2ccc(Br)cc2)cc(CN(C)C)c1O
inactive: K562 25.1 µM | HOP-62 30.1 µM | RXF 393 19.2 µM | OVCAR-8 29.2 µM | COLO 205 14.6 µM | M14 31.2 µM | MDA-MB-231 14.7 µM | 786-0 16 µM | SN12C 15.6 µM | SW-620 19.1 µM | UO-31 10.7 µM | MOLT-4 9.95 µM | SF-295 21.8 µM | SK-MEL-28 17.1 µM | CCRF-CEM 4.06 µM | EKVX 20.2 µM | RPMI-8226 3.54 µM | HT-29 18.8 µM

C=CC(=O)Nc1ccc(NC(=O)C=C)c2c1C(=O)c1ccccc1C2=O
inactive: K562 15.7 µM | HOP-62 > 100 µM | OVCAR-8 27.7 µM | COLO 205 > 100 µM | M14 29.6 µM | MDA-MB-231 97.7 µM | 786-0 21.5 µM | SN12C 35.8 µM | SW-620 26.4 µM | UO-31 46.1 µM | MOLT-4 21.6 µM | SF-295 10.8 µM | SK-MEL-28 33.5 µM | EKVX > 100 µM | RPMI-8226 3.03 µM | NCI-H23 48.6 µM | HT-29 45.5 µM | NCI-H522 16.6 µM

O=C(O)C1C2C=CC(C2)C1c1ccccc1 (stereo not given)
inactive: K562 > 100 µM | HOP-62 > 100 µM | RXF 393 > 100 µM | OVCAR-8 > 100 µM | COLO 205 > 100 µM | M14 > 100 µM | MDA-MB-231 > 100 µM | 786-0 > 100 µM | SN12C > 100 µM | SW-620 > 100 µM | UO-31 > 100 µM | MOLT-4 > 100 µM | SF-295 > 100 µM | SK-MEL-28 > 100 µM | CCRF-CEM > 100 µM | EKVX > 100 µM | RPMI-8226 > 100 µM | NCI-H23 > 100 µM | HT-29 > 100 µM

N#CC1(c2ccccc2)CCN(C2(c3ccccc3)CCCCC2)CC1
inactive: K562 > 100 µM | HOP-62 > 100 µM | RXF 393 > 100 µM | OVCAR-8 > 100 µM | COLO 205 > 100 µM | M14 > 100 µM | MDA-MB-231 > 100 µM | 786-0 94.2 µM | SN12C > 100 µM | SW-620 > 100 µM | UO-31 > 100 µM | MOLT-4 > 100 µM | SF-295 > 100 µM | SK-MEL-28 > 100 µM | CCRF-CEM > 100 µM | EKVX > 100 µM | RPMI-8226 > 100 µM | NCI-H23 > 100 µM | HT-29 > 100 µM
